Source: PMC6066355, “Probing the binding site of novel selective positive allosteric modulators at the M1 muscarinic acetylcholine receptor” (Biochemical Pharmacology, 2018)
Positions count from the first letter of the chain named.

Assays:
W400^7.35A M1 mAChR = molecular target: T1, W400^7.35A M1 mAChR (Homo sapiens, UniProt P11229, W400A); experiment: Whole cell [3H]NMS binding inhibition/interaction assay (ACh ± PAM), FlpIn CHO cells; conditions: affinity and cooperativity could not be estimated
T1 construct: expressed in transfected cells
T1 sequence (P11229 1-460 W400A): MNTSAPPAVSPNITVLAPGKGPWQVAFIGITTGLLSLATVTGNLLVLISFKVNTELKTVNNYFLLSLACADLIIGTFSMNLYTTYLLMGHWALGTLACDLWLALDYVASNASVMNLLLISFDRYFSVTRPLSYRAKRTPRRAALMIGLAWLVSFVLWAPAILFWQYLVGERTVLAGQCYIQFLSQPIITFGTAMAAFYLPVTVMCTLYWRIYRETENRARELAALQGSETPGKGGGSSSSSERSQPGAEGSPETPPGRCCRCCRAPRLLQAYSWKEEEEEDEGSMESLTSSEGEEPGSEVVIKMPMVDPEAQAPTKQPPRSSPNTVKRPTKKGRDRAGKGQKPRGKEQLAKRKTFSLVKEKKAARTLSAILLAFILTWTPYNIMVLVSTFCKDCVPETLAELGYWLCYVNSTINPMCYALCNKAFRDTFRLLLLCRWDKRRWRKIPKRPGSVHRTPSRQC
Procedure: (§1) Saturation binding assays were performed to estimate the expression levels and equilibrium dissociation constant of the radioligand (KD). FlpIn CHO cells stably expressing the WT or mutant c-myc hM1 mAChRs were plated at the density of 25,000 per well of 96-well white clear bottom Isoplates (PerkinElmer Life Sciences, Boston, MA), and grown overnight at 37 °C. […] Atropine at the final concentration of 100 µM was used to determine non-specific binding. The assays were terminated by rapid removal of the radioligand, and two washes with 100 µl/well ice-cold 0.9% NaCl buffer.
(§2) All data were analysed using GraphPad Prism 7 (San Diego, CA). […] Binding interaction studies between orthosteric agonists and allosteric modulators were fitted to the following allosteric ternary complex model (Eq. (1)):(1) Y=BmaxD/D+KDKB/α^′B+KB1+I/KI+B/KB+αIB/KIKB where Bmax is the total number of receptors, [D], [B] and [I] denote the concentrations of radioligand, allosteric ligand, and orthosteric ligand, respectively, and KD, KB and KI represent their respective equilibrium dissociation constants. α′ and α are the cooperativity factors between the allosteric ligand and radioligand or orthosteric ligand, respectively.

Y179^ECL2A M1 mAChR = molecular target: T2, Y179^ECL2A M1 mAChR (Homo sapiens, UniProt P11229, Y179A); experiment: as above; conditions: affinity and cooperativity could not be estimated
T2 construct: expressed in transfected cells
T2 sequence (P11229 1-460 Y179A): T1 sequence (P11229 1-460 W400A) with Y179A, A400W
Procedure: as §1, §2

WT M1 mAChR = molecular target: T3, WT M1 mAChR (Homo sapiens, UniProt P11229); experiment: IP-One (IP1) accumulation assay, CHO-hM1 cells; format: cell-based; conditions: for αβ (functional cooperativity with ACh, antilog in brackets) / Logαβ (logarithm of functional cooperativity between ACh and modulator): non-alkylated; for Logαβ (logarithm of functional cooperativity between ACh and modulator): pKB constrained to Table 1, β constrained to 1
T3 construct: expressed in transfected cells
T3 sequence (P11229 1-460): T1 sequence (P11229 1-460 W400A) with A400W
Procedure: The IP-One assay kit (Cisbio) was used for the direct quantitative measurement of myo-Inositol 1 phosphate (IP1). Cells were seeded at 25,000 per well into 96-well transparent cell culture plates and incubated overnight at 37 °C. […] Cells were then lysed with IP1 lysis buffer (50 mM HEPES pH 7.0, 15 mM KF, 1.5% V/V Triton-X-100, 3% V/V FBS, 0.2% W/V BSA), and IP1 levels were measured by incubation of cell lysates with FRET reagents (the cryptate-labeled anti-IP1 antibody and the d2-labeled IP1 analogue) for 1 h at 37 °C. […] Signals were expressed as the FRET ratio: F = (fluorescence665 nm/fluorescence590 nm) × 10^4, and normalized to the response to maximal ACh concentration (100 µM).
(Eq. (2)) was used:(2) Y=Basal+Em-Basal/1+KA+A/τA where Em is the maximal possible system response and Basal is the response in the absence of agonist. [A] denotes the concentration of ligand, and KA represents its equilibrium dissociation constants. τ denotes the intrinsic efficacy of the ligand, which incorporates the total receptor density and the efficiency of stimulus-response coupling.
Functional interaction studies between orthosteric agonists and allosteric modulators in IP1 assays were analysed using the following operational model of allosterism and agonism (Eq. (3)):(3) E=Basal+Em-BasalAKB+αβB+τBBEC50/EC50KB+B+AKB+αβB+τBBEC50 where Em is the maximal possible system response, and Basal is the response in the absence of agonist. KB is the equilibrium dissociation constant of allosteric ligand, and EC50 is the concentration of orthosteric agonist required to achieve half maximal response. [A] and [B] denote concentrations of orthosteric and allosteric ligands, respectively. α and β denote allosteric effects on orthosteric ligand binding affinity and efficacy, respectively, and τB denotes the efficacy of allosteric ligand. This model assumes that ACh is a full agonist at the receptor in both the absence/presence of modulator and/or there is no efficacy modulation (i.e., β = 1).

Row | Modulatory effect on ACh inhibition of [3H]NMS binding (W400^7.35A M1 mAChR) | Modulatory effect on ACh inhibition of [3H]NMS binding (Y179^ECL2A M1 mAChR) | LogτB (logarithm of functional efficacy of the modulator) (WT M1 mAChR) | τB (functional efficacy of the modulator, antilog in brackets) (WT M1 mAChR) | αβ (functional cooperativity with ACh, antilog in brackets) (WT M1 mAChR) | Logαβ (logarithm of functional cooperativity between ACh and modulator) (WT M1 mAChR) | SMILES
1 | completely abolished | completely abolished | 1.01 ± 0.03 | 10 | 83 | 1.92 ± 0.11 | Cc1cnc(C(=O)N[C@H]2CCOC[C@@H]2O)cc1Cc1ccc(-c2cscn2)cc1 [PF-06767832, N-((3R,4S)-3-hydroxytetrahydro-2H-pyran-4-yl)-5-methyl-4-(4-(thiazol-4-yl)benzyl)pyridine-2-carboxamide]
2 | completely abolished | completely abolished | 1.00 ± 0.05 | 10 | 59 | 1.77 ± 0.14 | Cn1cc(-c2ccc(COc3ccccc3-c3cc(=O)n(C4CCCCC4O)cn3)cc2)cn1 (stereo not drawn) [MIPS1780, 3-(2-hydroxycyclohexyl)-6-(2-((4-(1-methyl-1H-pyrazol-4-yl)-benzyl)oxy)phenyl)pyrimidin-4(3H)-one]

Row | SMILES | Modulatory effect on ACh inhibition of [3H]NMS binding (W400^7.35A M1 mAChR) | Modulatory effect on ACh inhibition of [3H]NMS binding (Y179^ECL2A M1 mAChR) | LogτB (logarithm of functional efficacy of the modulator) (WT M1 mAChR) | τB (functional efficacy of the modulator, antilog in brackets) (WT M1 mAChR) | αβ (functional cooperativity with ACh, antilog in brackets) (WT M1 mAChR) | Logαβ (logarithm of functional cooperativity between ACh and modulator) (WT M1 mAChR)
3 | Cn1cc(-c2ccc(Cn3cc(C(=O)N[C@H]4CCCC[C@@H]4O)c4c(F)cc(F)cc43)cn2)cn1 [VU6004256, 4,6-difluoro-N-(1S,2S)-2-hydroxycyclohexyl-1-((6-(1-methyl-1H-pyrazol-4-yl)pyridine-3-yl)methyl)-1H-indole-3-carboxamide] | completely abolished | completely abolished | 1.24 ± 0.05 | 17 | 60 | 1.78 ± 0.18
